Experimental data reported in patent US11186552B2, “Tebuconazole polymorph and preparation method therefor” (East China University of Science and Technology, priority 2017, dated 2021).
Values after ≈ are worked out from the molar mass of the structure shown.

Tests used:
wheat white powder = test: Live spray protection of plants, prevention and control effect; type: in vivo
Text: The water-dispersible granules preparations with 50% of crystal form 1 and crystal form 2 were formulated into solutions, respectively, and the plants were protected by live spray. Crystal form 2 has better prevention and control effect.

[1] = Solubility in ethanol by high performance liquid chromatography
Description: Excess crystal form 1 and crystal form 2 were weighed and suspended in ethanol, shaken for 12 h, and high performance liquid chromatography was used to test the solubility.

[2] = High temperature stability of crystal form (XRPD test); type: physicochemical; conditions: oven at 60±2° C., 5 and 10 days
Description: XRD (X-ray powder diffraction) method: instrument model: Rigaku Ultima IV; target: Cu-Kα (40 kV, 40 mA); using a D/tex Ultra detector at room temperature. The scanning range is from 3° to 45 in the 2θ interval, and the scanning speed is 20°/minute. […] After 5 and 10 days, the sample was taken out for XRPD test to investigate the crystalline stability of the sample to temperature.

[3] = High humidity stability of crystal form (XRPD test); type: physicochemical; conditions: 90±5% humidity, 5 days and 10 days
Description: (§1) XRD (X-ray powder diffraction) method: instrument model: Rigaku Ultima IV; target: Cu-Kα (40 kV, 40 mA); using a D/tex Ultra detector at room temperature. The scanning range is from 3° to 45 in the 2θ interval, and the scanning speed is 20°/minute.

[4] = Light stability of crystal form (XRPD test); type: physicochemical; conditions: 4500±500 lux light intensity, 5 days and 10 days
Description: as §1

## CC(C)(C)C(O)(CCc1ccc(Cl)cc1)Cn1cncn1 (racemic) [96% tebuconazole TC, (RS)-1-(4-chlorophenyl)-4,4-dimethyl-3-(1H-1,2,4-triazol-1-ylmethyl) pentan-3-ol]
Wheat white powder; concentration 0.15625 mg/L
  prevention and control effect: 0%
Wheat white powder; concentration 0.625 mg/L
  prevention and control effect: 30%
Wheat white powder; concentration 2.5 mg/L
  prevention and control effect: 50%
Wheat white powder; concentration 10 mg/L
  prevention and control effect: 100%

## CC(C)(C)C(O)(CCc1ccc(Cl)cc1)Cn1cncn1 (racemic) [crystal form 1, (RS)-1-(4-chlorophenyl)-4,4-dimethyl-3-(1H-1,2,4-triazol-1-ylmethyl) pentan-3-ol]
[1]; organic solvent or mixture, thermodynamic from solid, Solubility, excess solid suspended in ethanol, shaken for 12 h, HPLC
  solubility at 12 h: 92.1 mg/mL (≈ 299 mM)

## CC(C)(C)C(O)(CCc1ccc(Cl)cc1)Cn1cncn1 (racemic) [crystal form 2, (RS)-1-(4-chlorophenyl)-4,4-dimethyl-3-(1H-1,2,4-triazol-1-ylmethyl) pentan-3-ol]
[2]
  crystalline stability of the sample to temperature: stable
[3]
  crystalline stability of the samples to humidity: stable
[4]
  crystal form stability of the sample to light: stable
[1]; ethanol, crystal form 2 versus crystal form 1
  solubility in ethanol relative to crystal form 1: about 1.7 times
[1]; excess solid suspended in ethanol, shaken for 12 h, HPLC
  Solubility: 156.2 mg/mL (≈ 507 mM)
